Experimental data published in patent publication US7550483B2, “Amorphous salt of 4-(3-chloro-4-(cyclopropylaminocarbonyl)aminophenoxy)-7-methoxy-6-quinolinecarboxamide and process for preparing the same” (Eisai R&D Management Co., Ltd., priority 2005, dated 2009).

What was measured:
[1] = Test for measuring dissolution rate (rotating disk method); assay type: physicochemical; conditions: 2nd fluid pH 6.8, 500 mL, 37° C., 50 rpm, 1 cm^2
Description: The dissolution rates of the following crystal and amorphous compounds were measured under the conditions described below by the rotating disk method (see, J. H. Woods et al., J. Pharm. Soc., 54, 1068 (1955)): a crystalline form of the free carboxamide obtained in Preparation Example 1, an amorphous form of the methanesulfonate of the carboxamide obtained in Example 1 and an amorphous form of the ethanesulfonate obtained in Example 2. The dissolution rates were calculated based on a range in which linearity was maintained in the relation between concentration and time at the initial stage of dissolution.
(Rotating disk method conditions)
Solvent: “2nd fluid” (pH 6.8, 500 mL) as described in Japanese Pharmacopoeia 14th Edition, General Tests (disintegration test)
Disk rotation speed: 50 rpm
Area of powder contacting with solvent on disk: 1 cm^2
Sampling amount: approx. 1 mL
Column: YMC Pack ProC18 (YMC Co., Ltd.; inner diameter 4.6 mm, column length 150 mm, particle size 5 μm)
Column temperature: 40° C.
Concentration of solution B: 20%
Detection: ultraviolet absorbance photometer (wavelength: 252 nm)
Temperature of auto sampler: 25° C.

[2] = target: c-Kit kinase (Homo sapiens, UniProt P10721); conditions: AACR 2004 proceedings; WO2004/080462; cited from earlier work
Chain of c-Kit kinase (P10721 26-976): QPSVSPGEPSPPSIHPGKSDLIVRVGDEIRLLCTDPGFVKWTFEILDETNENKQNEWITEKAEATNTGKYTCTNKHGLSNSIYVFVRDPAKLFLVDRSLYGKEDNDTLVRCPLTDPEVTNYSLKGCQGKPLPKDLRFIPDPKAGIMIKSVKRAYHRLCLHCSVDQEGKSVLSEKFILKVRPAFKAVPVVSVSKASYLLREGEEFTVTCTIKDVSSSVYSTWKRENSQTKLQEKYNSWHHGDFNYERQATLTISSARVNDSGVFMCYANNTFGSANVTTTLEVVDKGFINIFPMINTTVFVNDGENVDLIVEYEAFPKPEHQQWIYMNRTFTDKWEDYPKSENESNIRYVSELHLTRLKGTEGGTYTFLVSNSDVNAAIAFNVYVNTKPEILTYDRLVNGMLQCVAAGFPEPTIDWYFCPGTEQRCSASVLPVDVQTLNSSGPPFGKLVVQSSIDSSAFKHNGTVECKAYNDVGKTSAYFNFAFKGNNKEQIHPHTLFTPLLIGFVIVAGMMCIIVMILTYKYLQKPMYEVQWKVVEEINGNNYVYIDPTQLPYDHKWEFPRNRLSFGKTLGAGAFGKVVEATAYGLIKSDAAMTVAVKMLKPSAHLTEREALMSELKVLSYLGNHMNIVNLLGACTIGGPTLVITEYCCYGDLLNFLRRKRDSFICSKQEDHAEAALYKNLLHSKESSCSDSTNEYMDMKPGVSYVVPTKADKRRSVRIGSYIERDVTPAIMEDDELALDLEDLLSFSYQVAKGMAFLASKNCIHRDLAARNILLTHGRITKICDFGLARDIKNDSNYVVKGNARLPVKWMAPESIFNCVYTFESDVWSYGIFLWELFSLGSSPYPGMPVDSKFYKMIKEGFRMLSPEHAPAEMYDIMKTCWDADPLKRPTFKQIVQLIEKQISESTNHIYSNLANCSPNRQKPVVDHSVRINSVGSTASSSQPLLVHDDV

[3] = system: angiogenesis; conditions: free-form product; WO02/32872 Example 368; cited from earlier work

dissolution rate [1] [μg/min/cm^2] | SMILES | inhibitory action for c-Kit kinase [2] | angiogenesis inhibition [3]
25.1 | CCS(=O)(=O)O.COc1cc2nccc(Oc3ccc(NC(=O)NC4CC4)c(Cl)c3)c2cc1C(N)=O [esylate amorphous, An amorphous form of the ethanesulfonate of 4-(3-chloro-4-(cyclopropylaminocarbonyl)aminophenoxy)-7-methoxy-6-quinolinecarboxamide] |  | 
22.7 | COc1cc2nccc(Oc3ccc(NC(=O)NC4CC4)c(Cl)c3)c2cc1C(N)=O.CS(=O)(=O)O [mesylate amorphous, An amorphous form of the methanesulfonate of 4-(3-chloro-4-(cyclopropylaminocarbonyl)aminophenoxy)-7-methoxy-6-quinolinecarboxamide] |  | 
1.1 | COc1cc2nccc(Oc3ccc(NC(=O)NC4CC4)c(Cl)c3)c2cc1C(N)=O [free form, 4-(3-chloro-4-(cyclopropylaminocarbonyl)aminophenoxy)-7-methoxy-6-quinolinecarboxamide] | strong inhibitory action | excellent angiogenesis inhibition
